Several values for one entry are separate records, joined by “and”; a condition that tells them apart may be missing. Equal entries are not always repeated. Where two headings read alike, the source gives them in different places.
Assays:
HUVECs [1] = test: Matrigel tube formation assay; assay type: cell-based, Human; conditions: Homo sapiens, HUVEC, 0.5 μM, 6 h, vs control, read-out: inhibitory rates of tube formation
Method: In the later stages of angiogenesis, tube formation of ECs is also an important process. Thus, a Matrigel tube formation assay was applied to assess the ability of HUVECs to form ECs vascular structures which is believed to be significant in new vessel formation.
Figure 4 Effects on the HUVECs tube formation. (I) HUVECs (1 × 10^4 cells) suspended in DMEM containing each compound (0.5 or 1 or 2 μM) were added to the Matrigel. Control was treated with DMEM alone. After incubation for 6 h at 37 °C, capillary networks were photographed and quantified (Olympus CKX41, magnification: 100×); (II) Rates of the HUVECs tube formation. The number of intact tubes was counted in five randomly chosen regions and expressed as the percentage of the control. The results were expressed as mean ±SD. ** p < 0.01; *** p < 0.005 compared with control.
Matrigel was dissolved at 4 °C overnight. Each well of prechilled 96-well plates was coated with 50 μL of Matrigel, incubated and solidified at 37 °C for 45 min. After removing the unsolidified fluid, HUVECs at the density of 1 × 10^4 were cultured in DMEM containing the indicated concentrations of compounds for 6 h. Controls were treated with the DMEM alone. Images were digitally captured and quantitatively analyzed (Olympus). The numbers and line lengths of the circular tubules formed by the cells were calculated manually. The values were observed from five randomly selected fields.

zebrafish embryos [2] = test: Zebrafish toxicity: mortality rate; assay type: in vivo, zebrafish (Danio rerio)
Method: (§1) To investigate the toxicity of these four compounds, the heart rates and the mortality rates of zebrafish embryos were recorded (Table 2 and Table 3). The heart rate of zebrafish in the control group was 117 beats/min.
(§2) Using transgenic fli-1: enhanced GFP zebrafish embryos, we investigated the effects of all compounds on angiogenesis. Zebrafish embryos were generated by natural pairwise mating and raised at 28.5 °C in embryo water (0.2 g/L of Instant Ocean Salt in distilled water). At about 6 h post fertilization (hpf), the embryos were sorted in the 6-well plate (six embryos/well), removing dead and unhealthy embryos. Then the embryos were treated with the indicated concentrations of compounds which were added into embryo water. After incubation for 24 or 48 h, the embryos were anesthetized using 0.05% 2-phenoxyethanol in embryo water, quantified and photographed.

HUVECs [3] = test: Wound-healing migration assay; assay type: cell-based, Human; conditions: 1 μM, 24 h, control = 100%
From the text: The migration of ECs is an important step of angiogenesis. The continuity of vascular ECs is the most important factor in preserving vessel wall function. Migration of ECs is essential to the recovery of this continuity after vascular ECs injury. […] As illustrated in Figure 3(I), the HUVECs migrated into the wound area actively (between the two white dash lines) under the compound-free condition (control).
Figure 3 Effects on the HUVECs migration. (I) HUVECs suspended in serum-free Dulbecco’s Modified Eagle Medium (DMEM) containing compounds (0.25 or 0.5 or 1 μM) for 24 h were photographed under a phase contrast microscopy (Olympus CKX41, magnification: 50×). Control was treated with serum-free DMEM which was consided as resulting in 100%; (II) Migration rates of compounds on the HUVECs. Data represented the mean standard deviation (SD) from three independent experiments. *** p < 0.005compared with control.
HUVECs were seeded in 6-well plates precoated with 0.1% gelatin, and grown overnight to confluence. The monolayer cells were wounded by scratching with 10 μL pipet tips and washed twice with serum-free DMEM (Dulbecco’s modified eagle medium) to remove the nonadherent cells and then replaced by serum-free DMEM with the indicated concentrations of compounds for 24 h. Images were taken at 0 h and 24 h independently after incubation at 37 °C, 5% CO2 environment. The migrated HUVECs were manually counted. The values were observed from four randomly selected fields.

zebrafish embryos [4] = test: Zebrafish toxicity: heart rates; assay type: in vivo; conditions: for Heart rates of zebrafish: control 117 beats/min
Method: as §1, §2

LO2 = test: MTT assay, cytotoxicity; assay type: cell-based; conditions: Homo sapiens, L02, 24 h, read-out: IC50, inhibition of cell proliferation
Procedure, shortened: (§3)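 5 × 10^3 cells/well; compound 24 h, 37 °C, 5% CO2; MTT 3 h; formazan in DMSO; A570. Media: DMEM + 10% FBS (HepG2, HeLa, LO2), RPMI 1640 + 10% FBS (K562). IC50 = 50% growth inhibition vs untreated.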

HUVEC = test: MTT assay, cell proliferation; assay type: cell-based, Human; conditions: Homo sapiens, 24 h, read-out: IC50, inhibition of cell proliferation
Procedure, shortened: (§4)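 Treatment lasted 24 h at 5 × 10^3 cells per well. MTT incubation ran 3 h, formazan was dissolved in DMSO and A570 was recorded. Percent growth against untreated wells gave the IC50 (50% inhibition).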

A549 = test: MTT assay, cell proliferation; assay type: cell-based; conditions: Homo sapiens, 24 h, read-out: IC50, inhibition of cell proliferation
Procedure, shortened: as §4

K562 = test: MTT assay, cell proliferation; assay type: cell-based; conditions: Homo sapiens, 24 h, read-out: IC50, inhibition of cell proliferation
Procedure, shortened: as §3

HCT116 = test: MTT assay, cell proliferation; assay type: cell-based; conditions: Homo sapiens, HCT-116, 24 h, read-out: IC50, inhibition of cell proliferation
Procedure, shortened: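 Absorbance at 570 nm of DMSO-dissolved formazan was expressed as percentage growth relative to untreated cells, and IC50 was taken as the concentration giving 50% inhibition. Seeding was 5 × 10^3 cells per well, with 24 h compound treatment followed by 3 h MTT.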

HepG2 = test: MTT assay, cell proliferation; assay type: cell-based; conditions: Homo sapiens, 24 h, read-out: IC50, inhibition of cell proliferation
Procedure, shortened: as §3

HeLa = test: MTT assay, cell proliferation; assay type: cell-based; conditions: Homo sapiens, 24 h, read-out: IC50, inhibition of cell proliferation
Procedure, shortened: as §3

[5] = tested on: transgenic fli-1: enhanced GFP zebrafish embryos; test: Zebrafish embryo assay: antiangiogenic effects; assay type: in vivo, zebrafish (Danio rerio); conditions: zebrafish embryos
[6] = Danio rerio, read-out: antiangiogenic rates
[7] = Danio rerio, vs vehicle (0.05% DMSO), read-out: Anti-angiogenic phenotype

SMILES | inhibition at 0.5 µM (HUVECs [1]) | Mortality rates (zebrafish embryos [2]; 1 μM, zebrafish) | Mortality rates (zebrafish embryos [2]; 2.5 μM, zebrafish) | Mortality rates (zebrafish embryos [2]; 10 μM, zebrafish) | migratory rates (HUVECs [3]) | Heart rates of zebrafish (zebrafish embryos [4]; 2.5 μM) | Heart rates of zebrafish (zebrafish embryos [4]; 10 μM) | IC50 (LO2) | IC50 (HUVEC) | IC50 (A549) | IC50 (K562) | IC50 (HCT116) | IC50 (HepG2) | IC50 (HeLa) | inhibition in vivo at 1 µM [5, 6] | inhibition in vivo at 1 µM [5, 7] | other results
CC(=O)Nc1ccc(NC(=O)/C(C)=C\CC23OC(C)(C)C4CC(C=C5C(=O)c6c(O)c7c(c(CC=C(C)C)c6OC542)OC(C)(CCC=C(C)C)C=C7)C3=O)cc1 (stereo not shown) [Compound 35, N-(4-acetamidophenyl) gambogamide] | 37% | 3.3 ± 5.77 % | 10 ± 0.00 % | 16.7 ± 5.77 % | 3.6% | 57 ± 2.61 beats/min | 45 ± 4.95 beats/min | 1.17 ± 0.41 µM | 0.2 ± 0.01 µM | 0.5 ± 0.05 µM | 0.26 ± 0.01 µM | 0.4 ± 0.02 µM | 0.27 ± 0.05 µM | 0.49 ± 0.02 µM | 25 to 50% | 25 to 50% | Mortality rates (zebrafish embryos [2]; 2.5 µM and 10 µM, zebrafish embryos): less than 20%; heart rates relative to control group (zebrafish embryos [4]; 2.5 µM and 10 µM, zebrafish): about half of the control group; inhibition in vivo at 2.5 µM ([5]; Danio rerio, 2.5 μM, vs vehicle (0.05% DMSO), read-out: Anti-angiogenic phenotype): 50 to 75%; inhibition in vivo at 10 µM ([5]; Danio rerio, 10 μM, vs vehicle (0.05% DMSO), read-out: Anti-angiogenic phenotype): > 75%
CC(C)=CCC[C@]1(C)C=Cc2c(O)c3c(c(CC=C(C)C)c2O1)O[C@]12C(=C[C@@H]4C[C@H]1C(C)(C)O[C@@]2(C/C=C(/C)C(=O)O)C4=O)C3=O [GA, Gambogic acid] | 26.1% | 20 ± 0.00% | 73.3% | 100% | 2.2% | Dead ^b | Dead | 0.89 ± 0.08 µM | 0.27 ± 0.01 µM | 0.94 ± 0.03 µM | 0.49 ± 0.03 µM | 0.59 ± 0.03 µM | 0.84 ± 0.04 µM | 1.14 ± 0.06 µM | 25 to 50% | 25 to 50% | Mortality rates (zebrafish embryos [2]; 2.5 μM, zebrafish, listed as A): 73.3 ± 5.77%; Heart rates of zebrafish (zebrafish embryos [4]; 1 μM): 36 beats/min and 36 ± 3.32 beats/min; Anti-angiogenic phenotype ([5]; 2.5 μM, vs vehicle (0.05% DMSO)): Dead ^b; Anti-angiogenic phenotype ([5]; 10 μM, vs vehicle (0.05% DMSO)): Dead

From publication PMC6268492, “Synthesis and Antiangiogenic Activity of Novel Gambogic Acid Derivatives” (Molecules, 2012)
